The kinase profiling compilation of Christmann-Franck et al. (2016)
Where “and” joins values, the source holds several entries; their conditions need not be identical. Identical values can stand only once.

Columns and labels:
Assay in all cases: radiometric filter-binding kinase assay, Kinase HotSpot
Details in all cases: compound 0.5 µM; ATP 10 µM
ADRBK1 (human) = ADRBK1 (human) (UniProt P25098)
AKT1 (human) = AKT1 (human) (UniProt P31749)
BTK (human) = BTK (human) (UniProt Q06187)
CAMKK2 (human) = CAMKK2 (human) (UniProt Q96RR4)
CDK1 CCNB1 (human) = CDK1 CCNB1 (human) (UniProt P06493+P14635)
Sequence of CDK1 CCNB1 (human) (P06493 whole entry, looked up): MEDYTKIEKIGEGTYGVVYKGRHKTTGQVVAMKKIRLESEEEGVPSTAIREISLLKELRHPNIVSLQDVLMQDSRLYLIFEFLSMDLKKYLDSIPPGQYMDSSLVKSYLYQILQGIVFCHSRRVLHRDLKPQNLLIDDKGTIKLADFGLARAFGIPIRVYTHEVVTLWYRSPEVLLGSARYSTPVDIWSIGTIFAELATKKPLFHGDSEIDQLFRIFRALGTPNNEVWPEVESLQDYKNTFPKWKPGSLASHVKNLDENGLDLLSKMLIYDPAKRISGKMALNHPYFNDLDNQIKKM
Sequence of CDK1 CCNB1 (human) (P14635 whole entry, looked up): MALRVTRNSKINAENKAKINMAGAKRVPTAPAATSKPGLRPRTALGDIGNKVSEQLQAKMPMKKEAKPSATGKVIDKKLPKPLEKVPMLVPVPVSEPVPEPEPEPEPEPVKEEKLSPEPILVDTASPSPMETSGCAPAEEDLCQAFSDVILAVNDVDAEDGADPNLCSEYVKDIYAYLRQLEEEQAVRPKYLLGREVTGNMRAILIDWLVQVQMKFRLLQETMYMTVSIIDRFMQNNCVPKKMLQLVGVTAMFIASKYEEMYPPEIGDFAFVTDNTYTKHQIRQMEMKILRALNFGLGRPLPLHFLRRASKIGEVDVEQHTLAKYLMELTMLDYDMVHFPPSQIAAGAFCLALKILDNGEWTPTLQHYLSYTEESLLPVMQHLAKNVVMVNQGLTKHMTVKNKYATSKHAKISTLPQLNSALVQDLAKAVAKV

CDK2 CCNA2 (human) = CDK2 CCNA2 (human) (UniProt P24941+P20248)
CDK4 CCND1 (human) = CDK4 CCND1 (human) (UniProt P24385+P11802)
CDK6 CCND1 (human) = CDK6 CCND1 (human) (UniProt Q00534+P24385)
CDK9 CCNK (human) = CDK9 CCNK (human) (UniProt O75909+P50750)
CSNK1E (human) = CSNK1E (human) (UniProt P49674)
Sequence of CSNK1E (human) (P49674 whole entry, looked up): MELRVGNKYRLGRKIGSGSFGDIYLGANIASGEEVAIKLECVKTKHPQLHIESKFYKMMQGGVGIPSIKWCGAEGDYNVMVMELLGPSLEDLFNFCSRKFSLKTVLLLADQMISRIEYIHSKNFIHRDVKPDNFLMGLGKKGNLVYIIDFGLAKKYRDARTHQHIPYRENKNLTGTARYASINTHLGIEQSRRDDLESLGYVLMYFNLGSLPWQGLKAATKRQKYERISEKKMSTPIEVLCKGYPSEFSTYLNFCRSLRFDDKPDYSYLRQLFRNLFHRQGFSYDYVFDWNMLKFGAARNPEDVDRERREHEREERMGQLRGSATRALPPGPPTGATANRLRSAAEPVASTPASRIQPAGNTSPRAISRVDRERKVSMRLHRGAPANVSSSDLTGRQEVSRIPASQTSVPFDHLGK

EPHA2 (human) = EPHA2 (human) (UniProt P29317)
EPHA4 (human) = EPHA4 (human) (UniProt P54764)
Sequence of EPHA4 (human) (P54764 whole entry, looked up): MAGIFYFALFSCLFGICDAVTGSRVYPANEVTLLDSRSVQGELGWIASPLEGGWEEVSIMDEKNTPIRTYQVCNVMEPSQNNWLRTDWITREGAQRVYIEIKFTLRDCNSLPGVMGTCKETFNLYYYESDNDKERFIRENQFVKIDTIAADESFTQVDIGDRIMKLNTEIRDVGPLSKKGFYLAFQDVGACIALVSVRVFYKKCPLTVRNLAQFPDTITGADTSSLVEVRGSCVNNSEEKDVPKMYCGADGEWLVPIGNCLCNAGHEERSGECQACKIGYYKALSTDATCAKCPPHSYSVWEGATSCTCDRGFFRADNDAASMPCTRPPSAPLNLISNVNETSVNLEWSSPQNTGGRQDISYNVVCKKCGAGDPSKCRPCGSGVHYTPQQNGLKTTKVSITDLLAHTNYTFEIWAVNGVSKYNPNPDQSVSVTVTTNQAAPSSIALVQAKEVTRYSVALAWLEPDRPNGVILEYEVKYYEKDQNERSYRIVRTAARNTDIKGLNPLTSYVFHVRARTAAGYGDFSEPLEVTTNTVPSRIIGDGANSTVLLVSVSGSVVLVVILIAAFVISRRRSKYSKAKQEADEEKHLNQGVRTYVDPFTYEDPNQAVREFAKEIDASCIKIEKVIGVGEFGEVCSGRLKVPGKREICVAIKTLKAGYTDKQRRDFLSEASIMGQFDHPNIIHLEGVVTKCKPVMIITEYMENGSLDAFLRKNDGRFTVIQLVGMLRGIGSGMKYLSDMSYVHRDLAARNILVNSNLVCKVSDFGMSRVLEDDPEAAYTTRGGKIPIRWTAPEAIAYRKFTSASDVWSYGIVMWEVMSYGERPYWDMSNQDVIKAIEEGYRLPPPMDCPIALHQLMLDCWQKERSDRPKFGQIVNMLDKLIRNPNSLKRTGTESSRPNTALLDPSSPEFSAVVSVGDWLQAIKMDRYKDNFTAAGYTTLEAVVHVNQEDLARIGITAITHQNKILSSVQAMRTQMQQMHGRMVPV

EPHA8 (human) = EPHA8 (human) (UniProt P29322)
FES (human) = FES (human) (UniProt P07332)
FRK (human) = FRK (human) (UniProt P42685)
GSG2 (human) = GSG2 (human) (UniProt Q8TF76)
HCK (human) = HCK (human) (UniProt P08631)
IRAK4 (human) = IRAK4 (human) (UniProt Q9NWZ3)
LRRK2 (human) = LRRK2 (human) (UniProt Q5S007)
LYN (human) = LYN (human) (UniProt P07948)
MAP4K2 (human) = MAP4K2 (human) (UniProt Q12851)
Sequence of MAP4K2 (human) (Q12851 whole entry, looked up): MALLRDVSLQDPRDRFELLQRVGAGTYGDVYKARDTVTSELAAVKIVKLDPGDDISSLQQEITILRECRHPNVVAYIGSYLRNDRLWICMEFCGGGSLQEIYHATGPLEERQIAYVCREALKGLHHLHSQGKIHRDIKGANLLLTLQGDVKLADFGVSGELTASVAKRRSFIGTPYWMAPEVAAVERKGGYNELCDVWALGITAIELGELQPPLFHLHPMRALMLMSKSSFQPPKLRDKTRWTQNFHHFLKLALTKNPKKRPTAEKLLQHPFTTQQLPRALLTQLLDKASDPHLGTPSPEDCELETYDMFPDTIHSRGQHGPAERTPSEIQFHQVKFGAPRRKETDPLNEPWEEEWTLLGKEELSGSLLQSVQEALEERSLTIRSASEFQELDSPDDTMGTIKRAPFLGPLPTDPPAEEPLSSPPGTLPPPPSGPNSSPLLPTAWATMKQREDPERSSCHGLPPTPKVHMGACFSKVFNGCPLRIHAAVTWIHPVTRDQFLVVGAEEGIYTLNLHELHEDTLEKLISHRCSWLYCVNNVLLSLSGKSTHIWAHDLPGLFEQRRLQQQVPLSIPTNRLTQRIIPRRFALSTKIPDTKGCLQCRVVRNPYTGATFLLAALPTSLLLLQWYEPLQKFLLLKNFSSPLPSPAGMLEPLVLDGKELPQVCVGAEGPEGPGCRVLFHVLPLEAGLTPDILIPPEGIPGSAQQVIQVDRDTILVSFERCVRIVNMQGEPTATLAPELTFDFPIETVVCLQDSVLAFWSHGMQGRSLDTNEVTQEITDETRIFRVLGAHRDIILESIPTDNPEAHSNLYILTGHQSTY

MLTK (human) = MLTK (human) (UniProt Q9NYL2)
MST4 (human) = MST4 (human) (UniProt Q9P289)
NTRK3 (human) = NTRK3 (human) (UniProt Q16288)
PAK4 (human) = PAK4 (human) (UniProt O96013)
PIM1 (human) = PIM1 (human) (UniProt P11309)
Sequence of PIM1 (human) (P11309 whole entry, looked up): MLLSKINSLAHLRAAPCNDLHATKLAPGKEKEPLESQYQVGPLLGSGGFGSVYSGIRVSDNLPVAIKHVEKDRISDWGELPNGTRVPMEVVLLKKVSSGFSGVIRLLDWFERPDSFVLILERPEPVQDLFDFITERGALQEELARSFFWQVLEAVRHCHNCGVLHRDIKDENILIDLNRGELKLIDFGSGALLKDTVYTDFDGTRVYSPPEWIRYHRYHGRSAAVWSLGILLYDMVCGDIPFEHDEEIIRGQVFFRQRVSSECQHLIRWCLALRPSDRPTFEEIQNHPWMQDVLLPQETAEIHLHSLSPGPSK

PRKCG (human) = PRKCG (human) (UniProt P05129)
PRKCI (human) = PRKCI (human) (UniProt P41743)
PRKG2 (human) = PRKG2 (human) (UniProt Q13237)
PTK2B (human) = PTK2B (human) (UniProt Q14289)
RPS6KA3 KD1 KD2 (human) = RPS6KA3 KD1 KD2 (human) (UniProt P51812)
RPS6KA6 KD1 KD2 (human) = RPS6KA6 KD1 KD2 (human) (UniProt Q9UK32)
SRMS (human) = SRMS (human) (UniProt Q9H3Y6)
SRPK1 (human) = SRPK1 (human) (UniProt Q96SB4)
SRPK2 (human) = SRPK2 (human) (UniProt P78362)
Sequence of SRPK2 (human) (P78362 whole entry, looked up): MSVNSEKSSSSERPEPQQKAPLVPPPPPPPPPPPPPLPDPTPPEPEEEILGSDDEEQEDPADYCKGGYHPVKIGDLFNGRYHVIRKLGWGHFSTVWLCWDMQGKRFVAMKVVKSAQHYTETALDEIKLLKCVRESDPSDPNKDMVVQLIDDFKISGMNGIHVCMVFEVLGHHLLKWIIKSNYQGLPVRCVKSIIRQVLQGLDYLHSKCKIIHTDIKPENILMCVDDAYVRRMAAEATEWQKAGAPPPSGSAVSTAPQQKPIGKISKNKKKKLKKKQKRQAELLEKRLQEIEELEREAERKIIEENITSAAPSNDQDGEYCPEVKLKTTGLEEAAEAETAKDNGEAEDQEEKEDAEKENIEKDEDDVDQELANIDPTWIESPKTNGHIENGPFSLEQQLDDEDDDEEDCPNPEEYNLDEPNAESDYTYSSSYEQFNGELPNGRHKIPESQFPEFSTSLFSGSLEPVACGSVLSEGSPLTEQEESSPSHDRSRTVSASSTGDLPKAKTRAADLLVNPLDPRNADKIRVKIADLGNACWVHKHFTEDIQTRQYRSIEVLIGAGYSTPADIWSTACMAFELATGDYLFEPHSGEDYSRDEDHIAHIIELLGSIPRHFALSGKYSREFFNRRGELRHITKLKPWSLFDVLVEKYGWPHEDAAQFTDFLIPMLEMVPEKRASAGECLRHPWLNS

SRPK3 (human) = SRPK3 (human) (UniProt Q9UPE1)
STK11 (human) = STK11 (human) (UniProt Q15831)
Sequence of STK11 (human) (Q15831 whole entry, looked up): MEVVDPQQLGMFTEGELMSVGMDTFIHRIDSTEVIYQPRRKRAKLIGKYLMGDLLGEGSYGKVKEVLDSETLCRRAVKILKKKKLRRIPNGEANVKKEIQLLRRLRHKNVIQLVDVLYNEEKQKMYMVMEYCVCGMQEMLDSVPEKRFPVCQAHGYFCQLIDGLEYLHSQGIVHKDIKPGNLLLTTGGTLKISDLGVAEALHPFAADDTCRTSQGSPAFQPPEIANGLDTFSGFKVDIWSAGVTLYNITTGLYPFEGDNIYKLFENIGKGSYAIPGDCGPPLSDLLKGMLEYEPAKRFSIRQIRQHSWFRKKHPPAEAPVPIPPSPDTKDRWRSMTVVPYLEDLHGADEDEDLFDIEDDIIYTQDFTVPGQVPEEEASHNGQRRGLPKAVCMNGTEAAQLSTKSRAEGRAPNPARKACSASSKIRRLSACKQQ

STK39 (human) = STK39 (human) (UniProt Q9UEW8)
STK4 (human) = STK4 (human) (UniProt Q13043)
TXK (human) = TXK (human) (UniProt P42681)
ULK3 (human) = ULK3 (human) (UniProt Q6PHR2)

Sequence of AKT1 (human) (P31749 whole entry, looked up): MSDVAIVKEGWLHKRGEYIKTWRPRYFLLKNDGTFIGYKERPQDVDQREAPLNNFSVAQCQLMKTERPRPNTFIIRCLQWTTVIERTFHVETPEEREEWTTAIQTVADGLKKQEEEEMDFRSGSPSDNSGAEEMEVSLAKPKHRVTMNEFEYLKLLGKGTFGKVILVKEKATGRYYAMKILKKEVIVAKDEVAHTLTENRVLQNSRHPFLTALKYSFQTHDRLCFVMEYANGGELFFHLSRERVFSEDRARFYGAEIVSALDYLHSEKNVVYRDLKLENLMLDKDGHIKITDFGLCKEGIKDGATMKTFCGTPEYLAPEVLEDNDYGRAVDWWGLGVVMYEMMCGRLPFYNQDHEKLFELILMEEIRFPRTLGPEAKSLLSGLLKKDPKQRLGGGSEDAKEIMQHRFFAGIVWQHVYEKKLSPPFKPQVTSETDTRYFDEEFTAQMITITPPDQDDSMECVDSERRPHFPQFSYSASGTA

Structure (SMILES): N#CC(C#N)=C(N)/C(C#N)=C/c1ccc(O)cc1
- residual activity (ADRBK1 (human)): 104%
- residual activity (AKT1 (human)): 99.2%
- residual activity (BTK (human)): 99.7%
- residual activity (CAMKK2 (human)): 91.6%
- residual activity (CDK1 CCNB1 (human)): 111%
- residual activity (CDK2 CCNA2 (human)): 97.9%
- residual activity (CDK4 CCND1 (human)): 100%
- residual activity (CDK6 CCND1 (human)): 91.3%
- residual activity (CDK9 CCNK (human)): 100%
- residual activity (CSNK1E (human)): 92.4%
- residual activity (EPHA2 (human)): 100%
- residual activity (EPHA4 (human)): 96%
- residual activity (EPHA8 (human)): 102%
- residual activity (FES (human)): 101%
- residual activity (FRK (human)): 99%
- residual activity (GSG2 (human)): 90.1%
- residual activity (HCK (human)): 98.6%
- residual activity (IRAK4 (human)): 92.6%
- residual activity (LRRK2 (human)): 97.1%
- residual activity (LYN (human)): 102% and 92.2%
- residual activity (MAP4K2 (human)): 100%
- residual activity (MLTK (human)): 95.7%
- residual activity (MST4 (human)): 101%
- residual activity (NTRK3 (human)): 95.5%
- residual activity (PAK4 (human)): 85.6%
- residual activity (PIM1 (human)): 103%
- residual activity (PRKCG (human)): 105%
- residual activity (PRKCI (human)): 97.4%
- residual activity (PRKG2 (human)): 86.9%
- residual activity (PTK2B (human)): 97.4%
- residual activity (RPS6KA3 KD1 KD2 (human)): 94.6%
- residual activity (RPS6KA6 KD1 KD2 (human)): 104%
- residual activity (SRMS (human)): 107%
- residual activity (SRPK1 (human)): 100%
- residual activity (SRPK2 (human)): 88.8%
- residual activity (SRPK3 (human)): 96.4%
- residual activity (STK11 (human)): 96.5%
- residual activity (STK39 (human)): 90.3%
- residual activity (STK4 (human)): 99.1%
- residual activity (TXK (human)): 100%
- residual activity (ULK3 (human)): 67.8%

Structure (SMILES): Nc1ccc2ncnc(NCCc3ccc(Oc4ccccc4)cc3)c2c1
- residual activity (ADRBK1 (human)): 91.5%
- residual activity (AKT1 (human)): 98.2%
- residual activity (BTK (human)): 96.8%
- residual activity (CAMKK2 (human)): 92.6%
- residual activity (CDK1 CCNB1 (human)): 96.3%
- residual activity (CDK2 CCNA2 (human)): 95.8%
- residual activity (CDK4 CCND1 (human)): 102%
- residual activity (CDK6 CCND1 (human)): 101%
- residual activity (CDK9 CCNK (human)): 104%
- residual activity (CSNK1E (human)): 148%
- residual activity (EPHA2 (human)): 103%
- residual activity (EPHA4 (human)): 98.5%
- residual activity (EPHA8 (human)): 101%
- residual activity (FES (human)): 99.6%
- residual activity (FRK (human)): 100%
- residual activity (GSG2 (human)): 96.9%
- residual activity (HCK (human)): 96.4%
- residual activity (IRAK4 (human)): 92.4%
- residual activity (LRRK2 (human)): 98.5%
- residual activity (LYN (human)): 101% and 103%
- residual activity (MAP4K2 (human)): 100%
- residual activity (MLTK (human)): 102%
- residual activity (MST4 (human)): 94.4%
- residual activity (NTRK3 (human)): 98.4%
- residual activity (PAK4 (human)): 105%
- residual activity (PIM1 (human)): 102%
- residual activity (PRKCG (human)): 95.2%
- residual activity (PRKCI (human)): 103%
- residual activity (PRKG2 (human)): 105%
- residual activity (PTK2B (human)): 95%
- residual activity (RPS6KA3 KD1 KD2 (human)): 101%
- residual activity (RPS6KA6 KD1 KD2 (human)): 103%
- residual activity (SRMS (human)): 99.2%
- residual activity (SRPK1 (human)): 99.8%
- residual activity (SRPK2 (human)): 95.3%
- residual activity (SRPK3 (human)): 96.6%
- residual activity (STK11 (human)): 97.6%
- residual activity (STK39 (human)): 83.9%
- residual activity (STK4 (human)): 95.8%
- residual activity (TXK (human)): 102%
- residual activity (ULK3 (human)): 112%

Structure (SMILES): N#C/C(=C(/N)Sc1ccc(N)cc1)c1ccccc1C(F)(F)F
- residual activity (ADRBK1 (human)): 114%
- residual activity (AKT1 (human)): 101%
- residual activity (BTK (human)): 93.5%
- residual activity (CAMKK2 (human)): 85.5%
- residual activity (CDK1 CCNB1 (human)): 105%
- residual activity (CDK2 CCNA2 (human)): 95.9%
- residual activity (CDK4 CCND1 (human)): 106%
- residual activity (CDK6 CCND1 (human)): 98%
- residual activity (CDK9 CCNK (human)): 98%
- residual activity (CSNK1E (human)): 95.9%
- residual activity (EPHA2 (human)): 104%
- residual activity (EPHA4 (human)): 99.3%
- residual activity (EPHA8 (human)): 94.1%
- residual activity (FES (human)): 98%
- residual activity (FRK (human)): 102%
- residual activity (GSG2 (human)): 99.9%
- residual activity (HCK (human)): 93.9%
- residual activity (IRAK4 (human)): 89.8%
- residual activity (LRRK2 (human)): 100%
- residual activity (LYN (human)): 107% and 98.5%
- residual activity (MAP4K2 (human)): 85.7%
- residual activity (MLTK (human)): 105%
- residual activity (MST4 (human)): 97.2%
- residual activity (NTRK3 (human)): 101%
- residual activity (PAK4 (human)): 99.4%
- residual activity (PIM1 (human)): 99.7%
- residual activity (PRKCG (human)): 99.5%
- residual activity (PRKCI (human)): 102%
- residual activity (PRKG2 (human)): 113%
- residual activity (PTK2B (human)): 105%
- residual activity (RPS6KA3 KD1 KD2 (human)): 100%
- residual activity (RPS6KA6 KD1 KD2 (human)): 83.9%
- residual activity (SRMS (human)): 105%
- residual activity (SRPK1 (human)): 96.5%
- residual activity (SRPK2 (human)): 99.5%
- residual activity (SRPK3 (human)): 96.3%
- residual activity (STK11 (human)): 102%
- residual activity (STK39 (human)): 94.6%
- residual activity (STK4 (human)): 89.7%
- residual activity (TXK (human)): 98.7%
- residual activity (ULK3 (human)): 106%

Structure (SMILES): CCOC(=O)c1c(C)[nH]c(/C=C2\C(=O)Nc3ccccc32)c1C
- residual activity (ADRBK1 (human)): 98.2%
- residual activity (AKT1 (human)): 96.1%
- residual activity (BTK (human)): 95.6%
- residual activity (CAMKK2 (human)): 90.8%
- residual activity (CDK1 CCNB1 (human)): 100%
- residual activity (CDK2 CCNA2 (human)): 94.5%
- residual activity (CDK4 CCND1 (human)): 103%
- residual activity (CDK6 CCND1 (human)): 89.7%
- residual activity (CDK9 CCNK (human)): 97.5%
- residual activity (CSNK1E (human)): 73.7%
- residual activity (EPHA2 (human)): 105%
- residual activity (EPHA4 (human)): 80.3%
- residual activity (EPHA8 (human)): 88.7%
- residual activity (FES (human)): 99.3%
- residual activity (FRK (human)): 95.3%
- residual activity (GSG2 (human)): 92.9%
- residual activity (HCK (human)): 92.6%
- residual activity (IRAK4 (human)): 96.8%
- residual activity (LRRK2 (human)): 28.6%
- residual activity (LYN (human)): 84.1% and 98.4%
- residual activity (MAP4K2 (human)): 95.5%
- residual activity (MLTK (human)): 92.7%
- residual activity (MST4 (human)): 101%
- residual activity (NTRK3 (human)): 27.9%
- residual activity (PAK4 (human)): 71.8%
- residual activity (PIM1 (human)): 95.8%
- residual activity (PRKCG (human)): 91.9%
- residual activity (PRKCI (human)): 92.9%
- residual activity (PRKG2 (human)): 78.9%
- residual activity (PTK2B (human)): 80.6%
- residual activity (RPS6KA3 KD1 KD2 (human)): 86.4%
- residual activity (RPS6KA6 KD1 KD2 (human)): 87.6%
- residual activity (SRMS (human)): 104%
- residual activity (SRPK1 (human)): 95.4%
- residual activity (SRPK2 (human)): 92.3%
- residual activity (SRPK3 (human)): 88.8%
- residual activity (STK11 (human)): 85.2%
- residual activity (STK39 (human)): 85.1%
- residual activity (STK4 (human)): 83.4%
- residual activity (TXK (human)): 96.1%
- residual activity (ULK3 (human)): 76.7%
